Tests used:
Acetylcholinesterase = biological target: T1, Acetylcholinesterase (Rattus norvegicus, UniProt P37136); test: Inhibitory activity against rat brain total Acetylcholinesterase (AChE) was determined using Ellman's method
T1 sequence (P37136 whole entry): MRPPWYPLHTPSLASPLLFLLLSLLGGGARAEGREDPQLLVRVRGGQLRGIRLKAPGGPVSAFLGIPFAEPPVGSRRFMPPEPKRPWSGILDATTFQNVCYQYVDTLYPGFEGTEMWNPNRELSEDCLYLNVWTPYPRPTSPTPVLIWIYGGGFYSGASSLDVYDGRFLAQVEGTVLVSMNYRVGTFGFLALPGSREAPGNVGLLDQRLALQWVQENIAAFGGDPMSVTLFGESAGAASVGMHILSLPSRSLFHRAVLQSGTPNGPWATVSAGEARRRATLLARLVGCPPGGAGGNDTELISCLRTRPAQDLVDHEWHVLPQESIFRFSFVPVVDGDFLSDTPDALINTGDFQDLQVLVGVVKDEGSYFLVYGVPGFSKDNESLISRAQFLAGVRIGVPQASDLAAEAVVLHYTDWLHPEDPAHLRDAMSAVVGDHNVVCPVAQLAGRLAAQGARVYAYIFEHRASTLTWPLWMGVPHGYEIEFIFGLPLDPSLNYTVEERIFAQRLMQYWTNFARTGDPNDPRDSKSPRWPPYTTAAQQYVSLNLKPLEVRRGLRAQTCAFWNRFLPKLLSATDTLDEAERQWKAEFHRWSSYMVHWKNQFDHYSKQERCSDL

Butyrylcholinesterase = Butyrylcholinesterase (Rattus norvegicus, UniProt Q9JKC1)
Chain of Butyrylcholinesterase (Q9JKC1 whole entry): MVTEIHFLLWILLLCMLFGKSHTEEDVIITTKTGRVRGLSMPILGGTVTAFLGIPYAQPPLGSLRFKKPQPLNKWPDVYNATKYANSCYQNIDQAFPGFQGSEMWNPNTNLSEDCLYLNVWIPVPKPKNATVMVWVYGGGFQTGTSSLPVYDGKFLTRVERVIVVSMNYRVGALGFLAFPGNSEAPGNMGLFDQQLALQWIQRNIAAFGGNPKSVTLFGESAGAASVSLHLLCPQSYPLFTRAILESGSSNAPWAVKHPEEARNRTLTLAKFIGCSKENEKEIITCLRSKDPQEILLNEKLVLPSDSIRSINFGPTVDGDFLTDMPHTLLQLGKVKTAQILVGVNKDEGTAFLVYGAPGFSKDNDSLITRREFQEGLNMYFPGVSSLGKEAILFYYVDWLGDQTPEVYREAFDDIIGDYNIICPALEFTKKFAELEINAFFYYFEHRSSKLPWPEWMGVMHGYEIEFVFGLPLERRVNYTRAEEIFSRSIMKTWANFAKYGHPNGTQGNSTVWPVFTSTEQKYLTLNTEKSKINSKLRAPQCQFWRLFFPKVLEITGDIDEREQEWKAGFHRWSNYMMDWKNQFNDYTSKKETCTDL
Description: Inhibitory concentration against rat brain butyrylcholinesterase (BuChE) was determined using Ellman's method

Row | Structure (SMILES) | IC50 (Acetylcholinesterase) [µM] | IC50 (Butyrylcholinesterase) [µM]
1 | Cc1nn(-c2ccccc2)c2nc3c(c(N)c12)CCCC3 | 28.5 | –
2 | Cc1nn(-c2ccccc2)c2nc3nc4c(c(N)c3cc12)CCCC4 | 6.39 | 134
3 | Cc1nn(-c2ccccc2)c2c(N)c3c(nc12)CCC3 | 32.2 | –
4 | COc1ccc2c3c1C[C@H]1C[C@@H](O)C=C[C@]31CCN(C)C2 | 3.1 | –
5 | Cc1nn(-c2ccccc2)c2c(N)c3c(nc12)CCCC3 | 26.7 | –
6 | Cc1nn(-c2ccccc2)c2nc3c(c(N)c12)CCC3 | 31.2 | –
7 | Nc1c2c(nc3nn(-c4ccccc4)cc13)CCCC2 | 6.01 | 31.9
8 | Cc1nn(-c2ccccc2)c2nc3nc4c(c(N)c3cc12)CCC4 | 23.2 | –
